{
  "source": "patent US7999132B2",
  "about": "“Anthranilic acid derivative or salt thereof” (Toyama Chemical Co., Ltd., priority 2004, dated 2011)",
  "test_system": "MMP-13",
  "test": "MMP-13 Production Inhibition Test",
  "assay_type": "cell-based, human",
  "conditions": "SW1353 cells stimulated with IL-1β 10 ng/mL, MMP-13 in culture supernatant by ELISA 16 hours after stimulation; for inhibition at 30 µM: Homo sapiens, 30 μmol/L, read-out: Inhibition rate (%) at 30 μmol/L",
  "description": "MMP-13 Production Inhibition Test\n6.8×10^3 human cartilage derived cell line SW1353 cells were suspended in 100 μL of Dulbecco modified Eagle's medium supplemented with 10% fetal calf serum, plated on 96-well plates and cultured for 3 days. After the culture medium was changed to Dulbecco modified Eagle's medium containing 0.2% lactalbumin hydrolysate and the cells were cultured for 6 hours, […] were added and then IL-1β was added to obtain the final concentration of 10 ng/mL 1 hour later. 16 hours after the stimulation, supernatant was collected and the amount of MMP-13 in the culture supernatant was determined with an ELISA kit (Amersham). The inhibition rate was calculated from the amount of MMP-13 in the presence of a test compound assuming that the amount of MMP-13 was 100% in the absence of the test compound.",
  "data": [
    {"smiles": "O=C(Nc1cc(-c2ccccc2)ccc1C(=O)O)c1ccccc1", "note": "[Example 4, 2-(benzamido)-4-phenylbenzoic acid]", "values": [
      {"measurement": "inhibition at 30 µM", "value": 80, "unit": "%"}
    ]},
    {"smiles": "O=C(Nc1cc(-c2cccs2)ccc1C(=O)O)c1ccccc1", "note": "[Example 7, 2-(Benzamido)-4-(thiophen-2-yl)benzoic acid]", "values": [
      {"measurement": "inhibition at 30 µM", "value": 91, "unit": "%"}
    ]},
    {"smiles": "O=C(Nc1cc(-c2cc3ccccc3o2)ccc1C(=O)O)c1ccccc1", "note": "[Example 8, 2-(benzamido)-4-(benzofuran-2-yl)benzoic acid]", "values": [
      {"measurement": "inhibition at 30 µM", "value": 95, "unit": "%"}
    ]},
    {"smiles": "O=C(Nc1cc(-c2ccc3c(c2)OCO3)ccc1C(=O)O)c1ccccc1", "note": "[Example 11, 2-(benzamido)-4-(benzo[1,3]dioxol-5-yl)benzoic acid]", "values": [
      {"measurement": "inhibition at 30 µM", "value": 92, "unit": "%"}
    ]},
    {"smiles": "O=C(Nc1cc(-c2ccc3c(c2)OCCO3)ccc1C(=O)O)c1ccccc1", "note": "[Example 15, 2-(Benzamido)-4-(2,3-dihydrobenzo[1,4]dioxin-6-yl)benzoic acid]", "values": [
      {"measurement": "inhibition at 30 µM", "value": 88, "unit": "%"}
    ]},
    {"smiles": "O=C(Nc1cc(-c2ccc(F)cc2F)ccc1C(=O)O)c1ccccc1", "note": "[Example 19, 2-(benzamido)-4-(2,4-difluorophenyl)benzoic acid]", "values": [
      {"measurement": "inhibition at 30 µM", "value": 94, "unit": "%"}
    ]},
    {"smiles": "COc1ccc(-c2ccc(C(=O)O)c(NC(=O)c3ccccc3)c2)cc1", "note": "[Example 22, 2-(Benzamido)-4-(4-methoxyphenyl)benzoic acid]", "values": [
      {"measurement": "inhibition at 30 µM", "value": 81, "unit": "%"}
    ]},
    {"smiles": "O=C(Nc1cc(/C=C/c2ccccc2)ccc1C(=O)O)c1ccccc1", "note": "[Example 24, 2-(benzamido)-4-((E)-2-phenylvinyl)benzoic acid]", "values": [
      {"measurement": "inhibition at 30 µM", "value": 92, "unit": "%"}
    ]},
    {"smiles": "O=C(Nc1cc(CCCCc2ccccc2)ccc1C(=O)O)c1ccccc1", "note": "[Example 33, 2-(benzamido)-4-(4-phenylbutyl)benzoic acid]", "values": [
      {"measurement": "inhibition at 30 µM", "value": 97, "unit": "%"}
    ]},
    {"smiles": "O=C(Nc1cc(Oc2ccccc2)ccc1C(=O)O)c1ccc2c(c1)OCO2", "note": "[Example 80, 2-(Benzo[1,3]dioxole-5-carboxamido)-4-phenoxybenzoic acid]", "values": [
      {"measurement": "inhibition at 30 µM", "value": 92, "unit": "%"}
    ]},
    {"smiles": "O=C(Nc1cc(Oc2ccccc2)ccc1C(=O)O)c1ccc2c(c1)OCCO2", "note": "[Example 83, 2-(2,3-Dihydrobenzo[1,4]dioxin-6-carboxamido)-4-phenoxybenzoic acid]", "values": [
      {"measurement": "inhibition at 30 µM", "value": 93, "unit": "%"}
    ]},
    {"smiles": "O=C(O)c1ccc(Oc2ccccc2)cc1NC(=O)C1CCCCC1", "note": "[Example 85, 2-(Cyclohexanecarboxamido)-4-phenoxybenzoic acid]", "values": [
      {"measurement": "inhibition at 30 µM", "value": 60, "unit": "%"}
    ]},
    {"smiles": "O=C(O)c1ccc(Oc2ccccc2)cc1NS(=O)(=O)c1ccccc1", "note": "[Example 88, 2-(Benzenesulfonamido)-4-phenoxybenzoic acid]", "values": [
      {"measurement": "inhibition at 30 µM", "value": 80, "unit": "%"}
    ]},
    {"smiles": "O=C(Nc1cc(Oc2ccccc2)ccc1C(=O)O)c1ccc(F)cc1", "note": "[Example 89, 2-(4-Fluorobenzamido)-4-phenoxybenzoic acid]", "values": [
      {"measurement": "inhibition at 30 µM", "value": 94, "unit": "%"}
    ]},
    {"smiles": "O=C(C=Cc1ccccc1)Nc1cc(Oc2ccccc2)ccc1C(=O)O", "note": "[Example 91, 2-(Cinnamamido)-4-phenoxybenzoic acid]", "values": [
      {"measurement": "inhibition at 30 µM", "value": 95, "unit": "%"}
    ]},
    {"smiles": "O=C(Nc1cc(Oc2ccccc2)ccc1C(=O)O)c1ccc2occc2c1", "note": "[Example 96, 2-(Benzofuran-5-carboxamido)-4-phenoxybenzoic acid]", "values": [
      {"measurement": "inhibition at 30 µM", "value": 96, "unit": "%"}
    ]},
    {"smiles": "O=C(Nc1cc(Oc2ccccc2)ccc1C(=O)O)c1nc2ccccc2s1", "note": "[Example 97, 2-(Benzothiazole-2-carboxamido)-4-phenoxybenzoic acid]", "values": [
      {"measurement": "inhibition at 30 µM", "value": 97, "unit": "%"}
    ]},
    {"smiles": "O=C(Nc1cc(OCc2ccccc2)ccc1C(=O)O)c1ccccc1", "note": "[Example 99, 2-(benzamido)-4-(benzyloxy)benzoic acid]", "values": [
      {"measurement": "inhibition at 30 µM", "value": 71, "unit": "%"}
    ]},
    {"smiles": "O=C(Nc1cc(OC2CCCCC2)ccc1C(=O)O)c1ccccc1", "note": "[Example 105, 2-(benzamido)-4-(cyclohexyloxy)benzoic acid]", "values": [
      {"measurement": "inhibition at 30 µM", "value": 64, "unit": "%"}
    ]},
    {"smiles": "O=C(Nc1cc(/C=C/c2cc(F)cc(F)c2)ccc1C(=O)O)c1ccccc1", "note": "[Example 130, 2-(Benzamido)-4-((E)-2-(3,5-difluorophenyl)vinyl)benzoic acid]", "values": [
      {"measurement": "inhibition at 30 µM", "value": 96, "unit": "%"}
    ]},
    {"smiles": "O=C(Nc1cc(/C=C/c2cccc(Cl)c2)ccc1C(=O)O)c1ccccc1", "note": "[Example 134, 2-(Benzamido)-4-((E)-2-(3-chlorophenyl)vinyl)benzoic acid]", "values": [
      {"measurement": "inhibition at 30 µM", "value": 99, "unit": "%"}
    ]},
    {"smiles": "O=C(Nc1cc(CCc2ccc(OC(F)(F)F)cc2)ccc1C(=O)O)c1ccccc1", "note": "[Example 138, 2-(Benzamido)-4-(2-(4-(trifluoromethoxy)phenyl)ethyl)benzoic acid]", "values": [
      {"measurement": "inhibition at 30 µM", "value": 95, "unit": "%"}
    ]},
    {"smiles": "O=C(Nc1cc(/C=C/c2ccc(F)cc2F)ccc1C(=O)O)c1ccccc1", "note": "[Example 141, 2-(benzamido)-4-((E)-2-(2,4-difluorophenyl)vinyl)benzoic acid]", "values": [
      {"measurement": "inhibition at 30 µM", "value": 95, "unit": "%"}
    ]},
    {"smiles": "O=C(Nc1cc(/C=C/c2cccc3nsnc23)ccc1C(=O)O)c1ccccc1", "note": "[Example 146, 2-(Benzamido)-4-((E)-2-(2,1,3-benzothiadiazol-4-yl)vinyl)benzoic acid]", "values": [
      {"measurement": "inhibition at 30 µM", "value": 97, "unit": "%"}
    ]},
    {"smiles": "O=C(Nc1cc(-c2ccc(F)cc2F)ccc1C(=O)O)c1ccc(F)cc1", "note": "[Example 150, 4-(2,4-difluorophenyl)-2-(4-fluorobenzamido)benzoic acid]", "values": [
      {"measurement": "inhibition at 30 µM", "value": 96, "unit": "%"}
    ]},
    {"smiles": "COc1cccc(/C=C/c2ccc(C(=O)O)c(NC(=O)c3ccc4c(c3)OCO4)c2)c1", "note": "[Example 157, 2-(Benzo[1,3]dioxole-5-carboxamido)-4-((E)-2-(3-methoxyphenyl)vinyl)benzoic acid]", "values": [
      {"measurement": "inhibition at 30 µM", "value": 98, "unit": "%"}
    ]},
    {"smiles": "O=C(Nc1cc(-c2cccc(Cl)c2)ccc1C(=O)O)c1ccc2c(c1)OCO2", "note": "[Example 163, 2-(Benzo[1,3]dioxole-5-carboxamido)-4-(3-chlorophenyl)benzoic acid]", "values": [
      {"measurement": "inhibition at 30 µM", "value": 98, "unit": "%"}
    ]},
    {"smiles": "O=C(Nc1cc(-c2ccc(O)cc2)ccc1C(=O)O)c1ccc(C(F)(F)F)cc1", "note": "[Example 176, 4-(4-Hydroxyphenyl)-2-(4-(trifluoromethyl)benzamido)benzoic acid]", "values": [
      {"measurement": "inhibition at 30 µM", "value": 98, "unit": "%"}
    ]},
    {"smiles": "Cc1cccc(C(=O)Nc2cc(-c3ccc(F)cc3F)ccc2C(=O)O)c1C", "note": "[Example 189, 4-(2,4-difluorophenyl)-2-(2,3-dimethylbenzamido)benzoic acid]", "values": [
      {"measurement": "inhibition at 30 µM", "value": 96, "unit": "%"}
    ]},
    {"smiles": "O=C(Nc1cc(-c2cccc(Cl)c2)ccc1C(=O)O)c1ccc(O)cc1", "note": "[Example 196, 4-(3-chlorophenyl)-2-(4-hydroxybenzamido)benzoic acid]", "values": [
      {"measurement": "inhibition at 30 µM", "value": 97, "unit": "%"}
    ]},
    {"smiles": "O=C(Nc1cc(-c2ccc(Cl)cc2)ccc1C(=O)O)c1ccccc1", "note": "[Example 212, 2-(Benzamido)-4-(4-chlorophenyl)benzoic acid]", "values": [
      {"measurement": "inhibition at 30 µM", "value": 95, "unit": "%"}
    ]},
    {"smiles": "O=C(Nc1cc(-c2c(F)cccc2F)ccc1C(=O)O)c1ccccc1", "note": "[Example 217, 2-(Benzamido)-4-(2,6-difluorophenyl)benzoic acid]", "values": [
      {"measurement": "inhibition at 30 µM", "value": 68, "unit": "%"}
    ]},
    {"smiles": "O=C(Nc1cc(-c2cccc(Cl)c2)ccc1C(=O)O)c1ccccc1", "note": "[Example 222, 2-(benzamido)-4-(3-chlorophenyl)benzoic acid]", "values": [
      {"measurement": "inhibition at 30 µM", "value": 98, "unit": "%"}
    ]},
    {"smiles": "Cc1cccc(-c2ccc(C(=O)O)c(NC(=O)c3ccccc3)c2)c1C", "note": "[Example 230, 2-(Benzamido)-4-(2,3-dimethylphenyl)benzoic acid]", "values": [
      {"measurement": "inhibition at 30 µM", "value": 95, "unit": "%"}
    ]},
    {"smiles": "O=C(Nc1cc(-c2cccc(OC(F)(F)F)c2)ccc1C(=O)O)c1ccccc1", "note": "[Example 234, 2-(Benzamido)-4-(3-(trifluoromethoxy)phenyl)benzoic acid]", "values": [
      {"measurement": "inhibition at 30 µM", "value": 99, "unit": "%"}
    ]},
    {"smiles": "Cc1ccc(-c2ccc(C(=O)O)c(NC(=O)c3ccccc3)c2)cc1", "note": "[Example 240]", "values": [
      {"measurement": "Inhibition rate (%) at 30 μmol/L", "value": 94, "unit": "%"}
    ]},
    {"smiles": "O=C(Nc1cc(-c2ccc(O)cc2)ccc1C(=O)O)c1ccccc1", "note": "[Example 243, 2-(benzamido)-4-(4-hydroxyphenyl)benzoic acid]", "values": [
      {"measurement": "inhibition at 30 µM", "value": 96, "unit": "%"}
    ]}
  ]
}
